Source: patent publication US9686994B2, “Use of ALS inhibitor herbicides for control of unwanted vegetation in ALS inhibitor herbicide tolerant beta vulgaris plants” (BAYER CROPSCIENCE AG, priority 2012, dated 2017)
“Also recorded” adds a separate entry of the source.

Key:
[1] = system: sugar beet plants where the proline at position 188 of the encoded ALS enzyme is substituted by a serine, Line C; assay: Greenhouse trial: ALS inhibitor treatment of sugar beets in direct comparison, Line C; type: in vivo, Beta vulgaris L. ssp. vulgaris; conditions: day 14 after application at BBCH 14; scale 0% no damage to 100% completely killed; g/ha: foramsulfuron 13, iodosulfuron-methyl-Na 3.5, amidosulfuron 15, thiencarbazone-methyl 7.5, Bisbyribac-Na 50, metosulam 15
Procedure: (§1) Mutated sugar beet plants comprising SEQ.ID.NO:3 and SEQ.ID.NO:5 (on two different alleles) for use in the context of the present invention (as described in Example 4 above, “Line A”) were treated with different ALS inhibitors in direct comparison with sugar beet plants where the tryptophan at position 569 of the encoded ALS enzyme is substituted by a leucine (“Line B”), with sugar beet plants described in WO 98/02527 where the proline at position 188 of the encoded ALS enzyme is substituted by a serine (“Line C”), and a traditional variety (wild-type) sugar beet plant not having a mutation at positions 569 and 188 (“Line WT”).
(§2) Several groups of seeds of the four different mentioned sugar beet plants were sown separately in the greenhouse and grew up to stage BBCH 14 for Beta vulgaris L. ssp. vulgaris (i.e. 4 leaves (the second pair) unfolded) according to the BBCH monograph “Growth stages of mono- and dicotyledonous plants”, 2nd edition, 2001, ed. Uwe Meier, Federal Biological Research Centre for Agriculture and Forestry (Biologische Bundesanstalt für Land and Forstwirtschaft). Subsequently, the resulting separate groups of sugar beet plants were each individually treated with an ALS inhibitor (ALS-in) in the amounts (g/ha) indicated in Table 1.
(§3) On day 14 after application of the respective ALS inhibitor, the damage (i.e. the phytotoxicity) for each group of sugar beet plants was rated on a stratified scale from 0% (i.e. no damage, no phytotoxicity) to 100% (i.e. the plants were completely killed).

[2] = system: regenerated sugar beet plants having the mutated SEQ.ID.NO:3 (heterozygote for this mutation); assay: Example 3: ALS inhibitor treatment of sugar beets, heterozygote mutant; type: in vivo; conditions: for resistance of the (heterozygote) mutated plants to the herbicide: foramsulfuron 12.5 g/ha, amidosulfuron 15 g/ha, iodosulfuron 3.5 g/ha, thiencarbazone-methyl 7.5 g/ha, up to 3 applications
From the text: (§4) The behaviour of regenerated sugar beet plants having the mutated SEQ.ID.NO:3 (heterozygote for this mutation) and a wild-type sugar beet commercial variety was compared.

[3] = system: dual mutant sugar beet plant comprising SEQ.ID.NO:3 and SEQ.ID.NO:5 (NCIMB 42050); assay: Example 4: ALS inhibitor treatment of sugar beets having further mutations in the ALS gene; type: in vivo; conditions: compared with the single mutant (position 569); even when put in composition with organic compounds
From the text: Subsequently, a mutated sugar beet plant was developed comprising SEQ.ID.NO:3 and SEQ.ID.NO:5 (on two different alleles). Such resulting dual mutant has been deposited under the Budapest Treaty under NCIMB 42050. A plant comprising both SEQ.ID.NO:3 and SEQ.ID.NO:5 can be generated by relying on several techniques, including, for instance, a subsequent mutagenesis step applied to the single mutant NCIMB 42051.
Then the resistance of this dual mutant plant (a mutation in one allele at amino acid 569 and a mutation in the other allele at amino acid 188) was compared with the single mutant (a mutation at position 569) sugar beet.

[4] = system: wild-type sugar beet commercial variety; assay: Example 3: ALS inhibitor treatment of sugar beets, wild type; type: in vivo; conditions: foramsulfuron 12.5 g/ha, amidosulfuron 15 g/ha, iodosulfuron 3.5 g/ha, thiencarbazone-methyl 7.5 g/ha; with or without rapeseed oil methyl ester
From the text: as §4

[5] = system: mutated sugar beet plants comprising SEQ.ID.NO:3 and SEQ.ID.NO:5 (on two different alleles), Line A; assay: Greenhouse trial: ALS inhibitor treatment of sugar beets in direct comparison, Line A; type: in vivo, Beta vulgaris L. ssp. vulgaris; conditions: day 14 after application at BBCH 14; scale 0% no damage to 100% completely killed; g/ha: foramsulfuron 13, iodosulfuron-methyl-Na 3.5, amidosulfuron 15, thiencarbazone-methyl 7.5, Bisbyribac-Na 50, metosulam 15
Procedure: as §1, §2, §3

[6] = system: traditional variety (wild-type) sugar beet plant not having a mutation at positions 569 and 188, Line WT; assay: Greenhouse trial: ALS inhibitor treatment of sugar beets in direct comparison, Line WT; type: in vivo, Beta vulgaris L. ssp. vulgaris; conditions: day 14 after application at BBCH 14; scale 0% no damage to 100% completely killed; g/ha: foramsulfuron 13, iodosulfuron-methyl-Na 3.5, amidosulfuron 15, thiencarbazone-methyl 7.5, Bisbyribac-Na 50, metosulam 15
Procedure: as §1, §2, §3

[7] = system: sugar beet plants where the tryptophan at position 569 of the encoded ALS enzyme is substituted by a leucine, Line B; assay: Greenhouse trial: ALS inhibitor treatment of sugar beets in direct comparison, Line B; type: in vivo, Beta vulgaris L. ssp. vulgaris; conditions: day 14 after application at BBCH 14; scale 0% no damage to 100% completely killed; g/ha: foramsulfuron 13, iodosulfuron-methyl-Na 3.5, amidosulfuron 15, thiencarbazone-methyl 7.5, Bisbyribac-Na 50, metosulam 15
Procedure: as §1, §2, §3

Structure (SMILES) | damage (phytotoxicity), average rating, Line C [1] [%] | resistance of the (heterozygote) mutated plants to the herbicide [2] | resistance of the dual mutant plant to the herbicide [3] | sensitivity of the wild-type plant to the herbicide [4] | damage (phytotoxicity), average rating, Line A [5] [%] | damage (phytotoxicity), average rating, Line WT [6] [%] | damage (phytotoxicity), average rating, Line B [7] [%] | resistance of the (heterozygote) mutated plants, herbicide applied together with the organic compound ([2]; iodosulfuron 3.5 g/ha with 25 g/ha rapeseed oil methyl ester)
COC(=O)c1csc(C)c1S(=O)(=O)NC(=O)n1nc(OC)n(C)c1=O [Thiencarbazone-methyl, thiencarbazone-methyl] | 37.5 | about the same level of resistance as for iodosulfuron | good resistance | very sensitive | 8.1 | 84.4 | 35.6 | 
COC(=O)c1ccc(I)cc1S(=O)(=O)[N-]C(=O)Nc1nc(C)nc(OC)n1.[Na+] [Iodosulfuron-methyl-Na, iodosulfuron-methyl-sodium] | 80.0 |  |  |  | 22.5 | 82.5 | 38.8 | 
COc1nc(C)nc(NC(=O)NS(=O)(=O)c2cc(I)ccc2C(=O)O)n1 [iodosulfuron] |  | good level of resistance |  | very sensitive |  |  |  | resistance declined
COc1cc(OC)nc(NC(=O)NS(=O)(=O)N(C)S(C)(=O)=O)n1 [Amidosulfuron, amidosulfuron] | 51.9 | same level of resistance | good resistance | very sensitive | 6.3 | 73.1 | 37.5 | 
COc1cc(OC)n2nc(S(=O)(=O)Nc3c(Cl)ccc(C)c3Cl)nc2n1 [Metosulam, metosulam] | 69.4 |  |  |  | 13.1 | 79.4 | 40.6 | 
COc1cc(OC)nc(Oc2cccc(Oc3nc(OC)cc(OC)n3)c2C(=O)O)n1 [Bisbyribac-Na, bispyribac-sodium] | 71.7 |  |  |  | 17.5 | 80.0 | 38.1 | 
COc1cc(OC)nc(NC(=O)NS(=O)(=O)c2cc(NC=O)ccc2C(=O)N(C)C)n1 [Foramsulfuron, foramsulfuron] | 77.5 | good resistance; also recorded: best resistance |  | very sensitive | 26.9 | 80.0 | 45.6 | 
